The source of these data is patent EP0765868A1, “Substituted bezoyl guanidines, process for their preparation, their use as antiarrhythmics or diagnostic agent as well as pharmaceuticals containing them” (HOECHST AKTIENGESELLSCHAFT, priority 1995, dated 1997).

Where a name gives a salt, the structure may show the parent alone.

For one test, the target named is T1, Na^+/H^+-Exchanger (Oryctolagus cuniculus, UniProt P23791).
T1 construct: den Na^+-Influx in die Erythrocyten via Na^+/H^+-Austausch flammenphotometrisch bestimmen zu können; from tissue; host or cells: Erythrocytes in whole blood from the ear arteries of cholesterol-fed White New Zealand rabbits
Kind of test: Inhibition of the Na+/H+ exchanger of rabbit erythrocytes (amiloride-sensitive Na+ influx, flame photometry). The note with it: Kaninchenerythrocyten; hyperosmolar salt-sucrose medium, pH 7,4, 37°C. It is filed as cell-based, Kaninchen. From the text:
Inhibition des Na^+/H^+-Exchangers von Kaninchenerythrocyten
Weiße Neuseeland-Kaninchen (Ivanovas) erhielten eine Standard-Diät mit 2% Cholesterin für sechs Wochen, um den Na^+/H^+-Austausch zu aktivieren und so den Na^+-Influx in die Erythrocyten via Na^+/H^+-Austausch flammenphotometrisch bestimmen zu können. Das Blut wurde den Ohrarterien entnommen und durch 25 IE Kalium-Heparin ungerinnbar gemacht. Ein Teil jeder Probe wurde zur Doppelbestimmung des Hämatokrits durch Zentrifugieren benutzt. Aliquots von jeweils 100 µl dienten zur Messung des Na^+-Ausgangsgehalts der Erythrocyten.
Um den Amilorid-sensitiven Natrium-Influx zu bestimmen, wurden 100 µl jeder Blutprobe in jeweils 5 ml eines hyperosmolaren Salz-Sucrose-Mediums (mmol/l: 140 NaCl, 3 KCl, 150 Sucrose, 0,1 Ouabain, 20 Tris-hydroxymethylaminomethan) bei pH 7,4 und 37°C inkubiert. Die Erythrocyten wurden danach dreimal mit eiskalter MgCl2-Ouabain-Lösung (mmol/l: 112 MgCl2, 0,1 Ouabain) gewaschen und in 2,0 ml destilliertem Wasser hämolysiert. Der intrazelluläre Natriumgehalt wurde flammenphotometrisch bestimmt.
Der Na^+-Nettoinflux wurde aus der Differenz zwischen Natrium-Ausgangswerten und dem Natriumgehalt der Erythrocyten nach Inkubation errechnet. Der Amilorid-hemmbare Natrium-Influx ergab sich aus der Differenz des Natriumgehalts der Erythrocyten nach Inkubation mit und ohne Amilorid 3 x 10^-4 mol/l. Auf diese Weise wurde auch bei den erfindungsgemäßen Verbindungen verfahren.

Another test relates to Rattenherzen. The note with it: isolated animal hearts (rat); Eur. Heart J. 9 (suppl.1): 167 (1988); cited from earlier work.

T1 sequence (P23791 whole entry): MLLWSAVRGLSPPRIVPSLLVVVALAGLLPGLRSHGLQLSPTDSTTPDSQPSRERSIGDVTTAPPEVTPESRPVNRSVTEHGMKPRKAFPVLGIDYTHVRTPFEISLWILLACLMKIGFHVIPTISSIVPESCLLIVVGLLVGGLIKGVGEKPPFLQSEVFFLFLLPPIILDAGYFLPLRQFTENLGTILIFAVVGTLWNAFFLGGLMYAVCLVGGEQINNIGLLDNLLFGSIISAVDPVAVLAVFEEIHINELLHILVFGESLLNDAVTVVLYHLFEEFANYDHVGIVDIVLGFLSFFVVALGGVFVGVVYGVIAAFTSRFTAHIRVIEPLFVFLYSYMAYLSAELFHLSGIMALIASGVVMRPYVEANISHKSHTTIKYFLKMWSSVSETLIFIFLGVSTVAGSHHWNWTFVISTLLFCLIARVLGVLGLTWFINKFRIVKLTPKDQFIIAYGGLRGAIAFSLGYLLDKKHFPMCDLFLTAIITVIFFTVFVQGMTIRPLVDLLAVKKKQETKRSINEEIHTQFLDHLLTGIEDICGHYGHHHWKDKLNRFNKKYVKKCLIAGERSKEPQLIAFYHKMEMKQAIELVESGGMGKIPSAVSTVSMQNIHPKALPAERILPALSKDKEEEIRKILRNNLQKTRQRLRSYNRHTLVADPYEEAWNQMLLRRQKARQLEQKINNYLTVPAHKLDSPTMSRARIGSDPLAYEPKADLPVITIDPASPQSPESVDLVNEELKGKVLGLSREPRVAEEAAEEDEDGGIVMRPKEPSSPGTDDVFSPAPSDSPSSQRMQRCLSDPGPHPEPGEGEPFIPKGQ

Consider `NC(N)=NC(=O)c1ccc(F)c(C(O)(O)C(F)(F)F)c1` [Beispiel 2, 4-Fluor-3-(1',1'-Bishydroxy-2',2',2'-trifluor)ethyl-benzoylguanidinhydrochlorid], for which the IC50 (commonly the concentration needed to halve the response being measured) at Na^+/H^+-Exchanger was found to be 1 µM. With `CCN(c1nc(N)c(C(=O)NC(=N)N)nc1Cl)C(C)C` [Ethylisopropylamilorid], in the test with Rattenherzen, the “künstlich ausgelöstes Kammerflimmern” value is given as “Noch potenter als Amilorid”. As for `NC(N)=NC(=O)c1ccc(C(O)(O)C(F)(F)F)cc1` [Beispiel 1, 4-(1',1'-Bishydroxy-2',2',2'-trifluor)-ethyl-benzoylguanidinhydrochlorid], the IC50 on Na^+/H^+-Exchanger was 1.5 µM.

Turning to `N=C(N)NC(=O)c1nc(Cl)c(N)nc1N` [Amilorid], the “künstlich ausgelöstes Kammerflimmern” value in the test with Rattenherzen is recorded as “völlig unterdrückt”. For `CC(C)c1ccc(C(=O)N=C(N)N)cc1C(O)(O)C(F)(F)F` [Beispiel 3, 4-Isopropyl-3-(1',1'-bis-hydroxy-2',2',2'-trifluor)-ethylbenzoylguanidin-hydrochlorid], on Na^+/H^+-Exchanger, the half-maximal inhibitory concentration (IC50) came to 0.3 µM.
